Reference: patent publication EP0751957B1, “PEPTIDE FRAGMENTS OF MICROBIAL STRESS PROTEINS AND PHARMACEUTICAL COMPOSITION MADE THEREOF FOR THE TREATMENT AND PREVENTION OF INFLAMMATORY DISEASES” (priority 1994, dated 2004)

How the values were obtained:
[1] = tested on: hsp65-PLNC; test: T cell proliferation assay, hsp65-PLNC; assay type: cell-based, Lewis rats; conditions: PLNC from hsp65-immunised rats; peptides 5 and 20 µg/ml
Protocol: Immunisations and primed lymph node populations: Rats were immunised with either Mt or hsp65. Mt was suspended at 5 mg/ml in IFA or DDA and 100 µl injected in each hind footpad (i.e. 500 µg/footpad, 1 mg/rat). Hsp65 (1 mg/ml in PBS) was mixed 1:1 with DDA and 100 µl injected (i.e. 50 µg/footpad, 100 µg/rat). Ten to 21 days later, draining popliteal lymph nodes were removed, disaggregated, washed three times and used as a source of primed lymph node cells (PLNC). In control experiments splenocytes and lymph nodes from unimmunised rats and PLNC from rats immunised with IFA or DDA/PBS alone were used.
(§1) T cell proliferation assays: PLNC were cultured in triplicate in 200 µl flat bottom microtitre wells (Costar) at 2 x 10^5 cells per well with or without antigen. In initial experiments PLNC were tested for responsiveness to individual peptides at concentrations of 5 and 20 µg/ml, and Mt, hsp65 and PPD over a range of concentrations. Concanavalin A (2 µg/ml) was used as a positive control for T cell proliferation. Cultures were incubated for 96 h at 37°C in a humidified atmosphere of 5% CO2. Cultures were pulsed for the final 16 h with [^3H] TdR (Amersham, U.K., 1 uCi/well) and TdR uptake measured using a liquid scintillation β counter. Assays using T cell lines were performed as above using 2 x 10^4 line cells per well with irradiated (30 Gy) syngeneic accessory cells (either 3 x 10^5 splenocytes/well or 10^6 thymocytes/well). Results are expressed as mean counts per minute (cpm) of triplicate cultures. In experiments where responses to Ag were low, responses were considered significant if the stimulation index (S.I. = […]) was greater than two and Student's t tests gave p < 0.01.
Hsp65-PLNC were analysed for responsiveness to a panel of peptides covering the entire sequence of hsp65 (Fig. 3a). […] In terms of magnitude of response, three regions of the molecule (residues 176-190, 211-230 and 221-240) appeared to contain the "dominant" T cell epitopes, while regions 86-100. 251-270, 396-410 and 506-525 contained "subdominant" or minor epitopes.

[2] = tested on: primed lymph node cells (PLNC); test: T cell proliferation assay, PLNC from peptide-immunised rats; assay type: cell-based, Lewis rats; conditions: for CPM PLNC: in vitro peptide 20 µg/ml
Protocol: Immunisations with synthetic peptides and primed lymph node populations: Rats were immunised with 50 µg of synthetic peptide in PBS/DDA in each hind footpad (i.e. 50 µg/footpad, 100 µg/rat). Ten days later, draining popliteal lymph nodes were removed, disaggregated, washed three times and used as a source of primed lymph node cells (PLNC). In some experiments, PLNC were derived as pooled inguinal and popliteal lymph nodes from AA rats 35-42 days post Mt immunisation.
as §1
To determine whether immunisation of rats with synthetic peptides was effective at priming for T cell reactivity to hsp65 epitopes, in vitro proliferative responses following immunisation with 100 µg of peptide each containing individual T cell epitopes were examined. PLNC isolated ten days after immunisation were tested for response to the immunising peptide, overlapping peptides and to hsp65 (Table II). PLNC responses were observed after immunisation with seven of the nine peptides. Responses were not seen after immunisation with peptides 386-400 and 511-525.
(§2) T cell responses by immunisation with hsp65 peptides. Rats were immunised with synthetic peptides containing individual hsp65 epitopes (100 µg peptide/DDA per rat). Ten days later PLNC were isolated and tested for responses to overlapping peptides (20 µg/ml). Peptide-specific T cell lines were generated by bulk in vitro stimulation of PLNC with immunising peptide. Lines were tested for responses to overlapping peptides (10 µg/ml). […] Results are expressed as mean cpm of triplicate cultures. All SEM were less than 20%.

[3] = tested on: hsp65-specific T cell line; test: T cell proliferation assay, hsp65-specific T cell line; assay type: cell-based, Lewis rats; conditions: short term lines from ten day hsp65-PLNC, seven days after first restimulation
Protocol: as §1
T cell lines: T cell lines with specificity for mycobacterial hsp65 or peptides were generated by bulk stimulation of either hsp65-PLNC or Mt-PLNC. PLNC were cultured at 5 x 10^6/ml in culture medium supplemented with 2% normal rat serum (NRS) in the presence of 10 µg/ml Ag. […]

[4] = tested on: Peptide-specific T cell lines; test: T cell proliferation assay, peptide-specific T cell lines from peptide-immunised rats; assay type: cell-based, Lewis rats; conditions: for CPM T Cell Line: in vitro peptide 10 µg/ml
Protocol: as §1
T cell lines: T cell lines with specificity for mycobacterial hsp65 or peptides were generated by bulk stimulation of either hsp65-PLNC or Mt-PLNC. PLNC were cultured at 5 x 10^6/ml in culture medium supplemented with 2% normal rat serum (NRS) in the presence of 10 µg/ml Ag. After three days viable cells were harvested using a ficoll-isopaque gradient and cultured for a further four days in culture medium + 5% FCS and 5% TCGF (Con A-activated rat spleen supernatant). Seven days after initial stimulation lines were restimulated with irradiated spleen accessory cells and 10 µg/ml Ag in culture medium + NRS. Lines were maintained ir. this seven day restimulation cycle. Short term epitope-specific T cell lines were also generated from rats immunised with synthetic peptides. Peptide-PLNC were cultured as above in the presence of 10 µg/ml peptide.
Bulk stimulation generated T cell lines to eight of the nine peptides tested. These eight lines were tested for specificity after four in vitro restimulations (Table II). All responded to the immunising peptide and, to some extent, to hsp65.
as §2

[5] = target: RT1.B^1 MHC class II molecule (rat (Lewis)); test: cell-based or functional assay
[6] = PLNC 10 days after immunisation with peptide 256-270 (100 µg/DDA)
[7] = T cell line from 256-270-immunised PLNC
[8] = PLNC 10 days after immunisation with peptide 176-190 (100 µg/DDA)
[9] = T cell line from 176-190-immunised PLNC
[10] = PLNC 10 days after immunisation with peptide 226-240 (100 µg/DDA)
[11] = T cell line from 226-240-immunised PLNC
[12] = PLNC 10 days after immunisation with peptide 446-460 (100 µg/DDA)
[13] = T cell line from 446-460-immunised PLNC
[14] = PLNC 10 days after immunisation with peptide 511-525 (100 µg/DDA)
[15] = T cell line from 511-525-immunised PLNC
[16] = PLNC 10 days after immunisation with peptide 211-225 (100 µg/DDA)
[17] = T cell line from 211-225-immunised PLNC
[18] = PLNC 10 days after immunisation with peptide 86-100 (100 µg/DDA), mean of triplicates
[19] = T cell line from 86-100-immunised PLNC
[20] = PLNC 10 days after immunisation with peptide 396-410 (100 µg/DDA)
[21] = T cell line from 396-410-immunised PLNC

**Q.** For “peptide 386-400: synthetic 15mer, residues 386-400 of mycobacterial hsp65”, which “hsp65-PLNC proliferative response to peptide” value [1] is on record?
**A.** failed to stimulate

**Q.** What about the “PLNC responses after immunisation with the peptide” value ([2]; 100 µg peptide, PLNC isolated ten days after immunisation) of the same substance?
**A.** not seen

**Q.** What about the “hsp65-specific T cell line response to peptide” value [3] of the same substance?
**A.** did stimulate

**Q.** With “251-265: synthetic 15mer, residues 251-265 of mycobacterial hsp65” as the substance, how does the “CPM PLNC” value [2, 6] read?
**A.** 6391 cpm

**Q.** What about the “CPM T Cell Line” value [4, 7] of the same substance?
**A.** 66063 cpm

**Q.** And the “response of the line generated against M.256-270 (line P.m52)” value ([4]; irradiated syngeneic spleen APC)?
**A.** responded

**Q.** Which results are given for “peptide 180-188: synthetic 9mer, minimal AA-associated epitope 180-188 of mycobacterial hsp65 (TFGLQLELT; UniProt P9WPE7 180-188, looked up, fragment) [reference compound]”?
**A.** hsp65-PLNC proliferative response to peptide [1]: induce responses, but at a lower level; CPM PLNC [2, 8]: 7859 cpm; CPM T Cell Line [4, 9]: 23275 cpm

**Q.** For mycobacterial hsp65 peptide 211-225, which reduction of peptide (1 µg/ml) induced T cell line proliferation by anti-RT1.B mAb 0X6 (10 µg/ml) [5] is on record?
**A.** > 70%

**Q.** mycobacterial hsp65 peptide 446-460 was tested. Which reduction of peptide (1 µg/ml) induced T cell line proliferation by anti-RT1.B mAb 0X6 (10 µg/ml) [5] did it give?
**A.** > 70%

**Q.** Which results are given for “221-235: synthetic 15mer, residues 221-235 of mycobacterial hsp65”?
**A.** CPM PLNC [2, 10]: 7381 cpm; CPM T Cell Line [4, 11]: 100306 cpm

**Q.** Which results are given for “261-275: synthetic 15mer, residues 261-275 of mycobacterial hsp65”?
**A.** CPM PLNC [2, 6]: 2553 cpm; CPM T Cell Line [4, 7]: 646 cpm

**Q.** “451-465: synthetic 15mer, residues 451-465 of mycobacterial hsp65” was tested. Which “CPM PLNC” value [2, 12] did it give?
**A.** 2130 cpm

**Q.** And the “CPM T Cell Line” value [4, 13]?
**A.** 1283 cpm

**Q.** Which results are given for “516-530: synthetic 15mer, residues 516-530 of mycobacterial hsp65”?
**A.** CPM PLNC [2, 14]: 2821 cpm; CPM T Cell Line [4, 15]: 1231 cpm

**Q.** With “216-230: synthetic 15mer, residues 216-230 of mycobacterial hsp65” as the substance, how does the “CPM PLNC” value [2, 16] read?
**A.** 11117 cpm

**Q.** What about the “CPM T Cell Line” value [4, 17] of the same substance?
**A.** 102341 cpm

**Q.** mycobacterial hsp65 peptide 226-240 was tested. Which reduction of peptide (1 µg/ml) induced T cell line proliferation by anti-RT1.B mAb 0X6 (10 µg/ml) [5] did it give?
**A.** > 70%

**Q.** How did the reduction of peptide (1 µg/ml) induced T cell line proliferation by anti-RT1.B mAb 0X6 (10 µg/ml) [5] turn out when mycobacterial hsp65 peptide 256-270 was run?
**A.** > 70%

**Q.** With mycobacterial hsp65 peptide 396-410 as the substance, how does the reduction of peptide (1 µg/ml) induced T cell line proliferation by anti-RT1.B mAb 0X6 (10 µg/ml) [5] read?
**A.** > 70%

**Q.** For “231-245: synthetic 15mer, residues 231-245 of mycobacterial hsp65”, which “CPM PLNC” value [2, 10] is on record?
**A.** 1655 cpm

**Q.** And the “CPM T Cell Line” value [4, 11]?
**A.** 862 cpm

**Q.** Which results are given for “441-455: synthetic 15mer, residues 441-455 of mycobacterial hsp65”?
**A.** CPM PLNC [2, 12]: 4715 cpm; CPM T Cell Line [4, 13]: 17805 cpm

**Q.** What does the source list for “181-195: synthetic 15mer, residues 181-195 of mycobacterial hsp65”?
**A.** CPM PLNC [2, 8]: 1916 cpm; CPM T Cell Line [4, 9]: 1653 cpm

**Q.** With mycobacterial hsp65 peptide 511-525 as the substance, how does the reduction of peptide (1 µg/ml) induced T cell line proliferation by anti-RT1.B mAb 0X6 (10 µg/ml) [5] read?
**A.** > 70%

**Q.** How did the “CPM PLNC” value [2, 8] turn out when “171-185: synthetic 15mer, residues 171-185 of mycobacterial hsp65” was run?
**A.** 3082 cpm

**Q.** And the “CPM T Cell Line” value [4, 9]?
**A.** 1640 cpm

**Q.** Which reduction of peptide (1 µg/ml) induced T cell line proliferation by anti-RT1.B mAb 0X6 (10 µg/ml) [5] does the source give for mycobacterial hsp65 peptide 176-190 here?
**A.** > 70%

**Q.** “91-105: synthetic 15mer, residues 91-105 of mycobacterial hsp65” was tested. Which “CPM PLNC” value [2, 18] did it give?
**A.** 1999 cpm

**Q.** And the “response of T cell line generated following immunisation with the 86-100 peptide” value [4]?
**A.** responded

**Q.** And the “CPM T Cell Line” value [4, 19]?
**A.** 18444 cpm

**Q.** “206-220: synthetic 15mer, residues 206-220 of mycobacterial hsp65” was tested. Which “CPM PLNC” value [2, 16] did it give?
**A.** 645 cpm

**Q.** And the “CPM T Cell Line” value [4, 17]?
**A.** 988 cpm

**Q.** With “401-415: synthetic 15mer, residues 401-415 of mycobacterial hsp65 (AKAAVEEGIVAGGGV; UniProt P9WPE7 401-415, looked up, fragment)” as the substance, how does the “CPM PLNC” value [2, 20] read?
**A.** 3211 cpm

**Q.** And the “CPM T Cell Line” value [4, 21]?
**A.** 2011 cpm

**Q.** Which results are given for “81-95: synthetic 15mer, residues 81-95 of mycobacterial hsp65 (DDVAGDGTTTATVLA; UniProt P9WPE7 81-95, looked up, fragment)”?
**A.** CPM PLNC [2, 18]: 15296 cpm; response of T cell line generated following immunisation with the 86-100 peptide [4]: responded; CPM T Cell Line [4, 19]: 15785 cpm

**Q.** For “506-520: synthetic 15mer, residues 506-520 of mycobacterial hsp65”, which “CPM PLNC” value [2, 14] is on record?
**A.** 2754 cpm

**Q.** What about the “CPM T Cell Line” value [4, 15] of the same substance?
**A.** 61293 cpm

**Q.** mycobacterial hsp65 peptide 86-100 was tested. Which reduction of peptide (1 µg/ml) induced T cell line proliferation by anti-RT1.B mAb 0X6 (10 µg/ml) [5] did it give?
**A.** > 70%

**Q.** With “391-405: synthetic 15mer, residues 391-405 of mycobacterial hsp65” as the substance, how does the “CPM PLNC” value [2, 20] read?
**A.** 2280 cpm

**Q.** What about the “CPM T Cell Line” value [4, 21] of the same substance?
**A.** 39335 cpm
